The subject of the experiment is Staphylococcus aureus (ATCC #27660). Description: Rapid Germicidal Time Kill on treated gloves. The conditions noted are these: for log reduction of organisms: nitrile gloves, versus applied organisms estimated from latex control. Format: cell-based. As for the experimental part: We applied an inoculum of a known amount of microbes to the antimicrobial-treated surface of a glove. After about 3-6 minutes, we assessed the number of microbes that remained on the surface of the treated glove. […] Table 2 reports the relative efficacy of killing after contact with the coated glove. The concentration of organisms on the surface is given at an initial Zero Time point and at 3, 5, and 30 minute points. […] To test the antimicrobial efficacy of a polyhexamethylene biguanide, we treated nitrile examination gloves according to ASTM protocol 04-123409-106 “Rapid Germicidal Time Kill.” In brief, about 50 μL of an overnight culture of Staphylococcus aureus (ATCC #27660, 5×10^8 CFU/mL) was applied to the glove material. After a total contact time of about 6 minutes the glove fabric was placed into a neutralizing buffer. Surviving organisms were extracted and diluted in Letheen broth. Aliquots were spread plated on Tryptic Soy Agar plates. Plates were incubated for 48 hours at 35° C. Following incubation the surviving organisms were counted and the colony forming units (CFU) were recorded. The reduction (log10) in surviving organisms from test material versus control fabric was calculated: Log10 CFU/swatch Control−Log10 CFU/swatch Test Article=Log10 Reduction.

In the case of Polyhexamethylene biguanide (PHMB), under “microtextured nitrile glove, machine applied at 0.03 g/glove”, the “log reduction of Staphylococcus aureus ATCC 27660” value was “greater than four log reduction”. Moreover, the “log reduction of organisms” value by setting is: (hand sprayed with no heat) “greater than one log reduction”; (machine sprayed under heated conditions) “greater than 5 log”.

Values taken from US20070048358A1, “Antimicrobial substrates” (priority 2005, published 2007).
